Experimental data reported in patent US10532105B2, “Formulations for improving the efficacy of hydrophobic drugs” (Peptinovo Biopharma, LLC, priority 2015, dated 2020).
Non-standard residues stand in square brackets, D forms with d. No end group written: not given here. Aib = CC(C)(N)C(=O)O

Key:
BHK(SR-BI) cells = test: DiI uptake from PALM or HDL by BHK(SR-BI) cells, SR-BI un-induced or induced; assay type: cell-based, hamster; conditions: for Increase Over Un-induced: DiI uptake, induced vs un-induced cells; for Induced DiI Uptake: SR-BI induced (10 nM mifepristone) BHK(SR-BI) cells; for Induced DiI Uptake / Un-induced DiI Uptake: 4 hours, mean ± SEM, n = 4; for Un-induced DiI Uptake: un-induced BHK(SR-BI) cells, relative to protein (HDL) or peptide (PALM) concentration
Procedure: SR-BI interaction studies are done with BHK(SR-BI) cells obtained from the NIH. The cells were stably transfected with an inducible human SR-BI gene by means of the GeneSwitch™ System (Invitrogen). The cells were plated (96-well plate) (8000 cells/well) in growth medium (Dulbeco's modified Eagle medium containing 10% fetal bovine serum) containing 200 ug/ml each of zeocin and hygromycin. After 24 hours incubation, the growth medium was removed and replaced with 0.2% bovine serum albumin in Dulbeco's modified Eagle medium. The medium of cells to be induced for SR-BI expression also contained 10 nM mifepristone, added from a DMSO stock solution. DMSO alone was added to the medium of uninduced cells. The induction medium was removed after 24 hours and replaced with medium containing DiI-labeled PALM (32 μg peptide/ml) or DiI-labeled HDL (19 μg protein/ml) (Kalen Biomedical, Montgomery Village, Md.). The test media were prepared by diluting an aliquot of Di-I-labeled PALM (Example 5) or the DiI-labeled HDL in 0.2% bovine serum albumin in Dulbeco's modified Eagle medium. The solutions were passed through 0.2 μm pore size, polyethersulfone, sterilization filters before use. The cells were incubated for 4 hours. Next, the cells were washed 3 times with 0.1% albumin in Dulbeco's phosphate buffered saline (with calcium and magnesium). The last wash was replaced with 200 ul/well of t-butanol/water (95%/5%). The covered plate was left to stand at ROOM TEMPERATURE for 30 min with occasional shaking. The fluorescence in each well was detected at 520 nm excitation and 580 nm emission with a 550 nm cutoff filter on a Molecular Dynamics Gemini fluorescence plate reader (FIG. 9).

[1] = Stability of peptide/phospholipid complexes by visual inspection; assay type: physicochemical; conditions: SM, PC/SM 70/30
Procedure: Separate stock solutions of peptide and phospholipids were prepared in a solvent mixture composed of 80% tert-butyl alcohol (TBA) and 20% water to obtain separate solutions of 10 mM peptide, 20 mM 1,2-dioleoyl-sn-glycero-3-phosphocholine (DOPC) or 20 mM 1-palmitoyl-2-oleoyl-phosphatidylcholine (POPC) and 20 mM egg SM. Aliquots of stock solution were combined to obtain a final solution containing 10 mole equivalents of peptide, 42 mole equivalents of phosphatidylcholine and 18 mole equivalents of SM. The solutions were combined in a 1.5 ml glass vial, frozen (−70° C.), and lyophilized at −5 to −10° C. overnight. The resultant lyophilized cakes were rehydrated by addition of Dulbeco's phosphate buffered saline followed by gentle swirling of the contents. Formation of PALM was completed by incubating the PALM solution at 50° C. for 10 minutes. […] The qualities of the PALM preparations were evident in their appearance. A visually clear preparation indicated any nanoparticles that had formed were less than approximately 20 nm diameter.

Row | Substance | Increase Over Un-induced (BHK(SR-BI) cells) [%] | Induced DiI Uptake (BHK(SR-BI) cells) [pmol/µg/mL] | Un-induced DiI Uptake (BHK(SR-BI) cells) [pmol/µg/mL] | Stability by visual inspection (appearance) ([1]; DOPC, C16PTX/PL mole ratio 0) | Stability by visual inspection (appearance) ([1]; DOPC, C16PTX/PL mole ratio 0.1) | Stability by visual inspection (appearance) ([1]; POPC, C16PTX/PL mole ratio 0) | Stability by visual inspection (appearance) ([1]; POPC, C16PTX/PL mole ratio 0.1)
1 | DVFQ{AIB}LKELLNQLLEKFKQV (DVFQ[Aib]LKELLNQLLEKFKQV) [SEQ ID NO: 5] | 73 | 0.93 ± 0.03 | 0.54 ± 0.03 | – | – | – | –
2 | DV{AIB}QKFLELFNQLLEKWKQV (DV[Aib]QKFLELFNQLLEKWKQV) [SEQ ID NO: 32] | 221 | 0.90 ± 0.03 | 0.28 ± 0.02 | Turbid | Turbid | Clear | Turbid
3 | DV{AIB}QKLFELFNQLLEKWKQV (DV[Aib]QKLFELFNQLLEKWKQV) [SEQ ID NO: 27] | 90 | 0.66 ± 0.02 | 0.34 ± 0.01 | Turbid | – | Clear | Turbid
4 | DVFQKL{AIB}ELFNQLLEKWKQV (DVFQKL[Aib]ELFNQLLEKWKQV) [SEQ ID NO: 25] | 245 | 0.83 ± 0.02 | 0.24 ± 0.01 | Clear | Clear | Clear | Clear
5 | DVFQ{AIB}LKELFNQLLEKWKQV (DVFQ[Aib]LKELFNQLLEKWKQV) [SEQ ID NO: 3] | 88 | 0.29 ± 0.03 | 0.16 ± 0.01 | – | – | – | –
6 | DVFQKL{AIB}ELFNQL{AIB}EKWKQV (DVFQKL[Aib]ELFNQL[Aib]EKWKQV) [SEQ ID NO: 35] | 264 | 1.26 ± 0.06 | 0.35 ± 0.01 | – | – | – | –
7 | DVFQKLVELFNQLLEKWKQV [SEQ ID NO: 26] | 65 | 0.81 ± 0.04 | 0.49 ± 0.04 | – | – | Clear | Turbid
